Assay results from patent US9057726B2, “Neuropeptide Q as modulator of GPCR GALR2 and uses thereof” (Actelion Pharmaceuticals Ltd., priority 2010, dated 2015).
No end group written: not given here.

Assays:
GALR2 [1] = target: T1, GALR2 (Homo sapiens, UniProt O43603); assay: FLIPR assay (intracellular calcium release); format: cell-based; parameters: expressed in transfected cells; host or cells: CHO-K1 (coexpressing Gα16); settings: CHO-K1 cells coexpressing Gα16 and human GALR2
T1 sequence (O43603 1-387): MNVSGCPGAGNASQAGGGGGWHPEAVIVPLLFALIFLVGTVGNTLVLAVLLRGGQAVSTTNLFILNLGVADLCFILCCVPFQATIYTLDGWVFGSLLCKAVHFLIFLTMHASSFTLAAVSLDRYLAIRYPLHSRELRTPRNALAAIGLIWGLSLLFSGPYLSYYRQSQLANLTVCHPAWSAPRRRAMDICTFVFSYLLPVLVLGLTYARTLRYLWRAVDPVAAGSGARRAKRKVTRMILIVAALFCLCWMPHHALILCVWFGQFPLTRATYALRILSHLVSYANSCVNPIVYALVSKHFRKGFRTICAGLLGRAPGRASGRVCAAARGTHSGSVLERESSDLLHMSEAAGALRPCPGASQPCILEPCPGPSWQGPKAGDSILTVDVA
Description: CHO-K1 cells coexpressing Gα16 and the recombinant human GALR2 receptor grown to mid-log phase in culture media are detached with PBS-EDTA, centrifuged, resuspended in cell-culture medium (HAM's F12 with HEPES, 10% (v/v) Fetal Calf Serum), and dispensed at 15′000 cells per well in 384-well FLIPR plates. After overnight incubation in a humidified 37° C./5% CO2 incubator, the medium was discarded and replaced with a dye solution (DMEM w/o Phenol Red with HEPES, Fluo4-AM and Probenecid). After an incubation of 1 hour in a humidified 37° C./5% CO2 incubator, the dye solution was replaced by Assay Medium (HBSS/DMEM w/o phenol red). […] The resulting emission of fluorescence is recorded using FLIPR tetra. For antagonist testing 100 μl of the Neuropeptide Q polypeptide at its EC80 is injected on the mix of cells and candidate modulator, following an incubation of 15 min after the first injection. The resulting emission of fluorescence is recorded using FLIPR tetra. Agonist activity of the candidate modulator is expressed as a percentage of the activity of the Neuropeptide Q polypeptide at its EC100 concentration. Antagonist activity of the candidate modulator is expressed as a percentage of the inhibition of Neuropeptide Q polypeptide activity at its EC80 concentration.

stomach muscle = settings: stomach explants, dose-dependent contraction; cited from earlier work
GALR2 [2] = target: T1, GALR2; settings: in vitro studies; cited from earlier work

Row | Substance | EC50 (GALR2 [1]) | also measured
1 | NWTPQAMLYLKGAAG | 0.1 nM | 
2 | NWTPQAMLYLKGAQ [Neuropeptide Q, synthetic amidated Neuropeptide Q tested by Mirabeau et al] |  | EC50 (stomach muscle): 750 nM
3 | NWTPQAMLYLKGAQP | 0.3 nM | 
4 | NWTPQAMLYLKGPQG | 0.3 nM | 
5 | PWTPQAMLYLKGAQG | 0.1 nM | 
6 | galanin-(2-13)-Glu-His-(Pro)3-(Ala-Leu)2-Ala-amide [Peptide M871] |  | higher affinity for GALR2 than for GALR1 (GALR2 [2]): 32 fold
